This is an account of results in patent US6180640A, “Di- and tetra-hydroquinoline-indole antimicrobial agents, uses and compositions related thereto” (Sepracor, Inc., priority 1999, dated 2001).

One data set is described as follows: in vivo. On the set-up: species or system mice. As to conditions: mouse, ip. As to the method: Solutions of compounds in 10% w/v hydroxypropyl-β-cyclodextrin in 0.9% w/v saline were prepared. A dose of 40 mg/kg or 120 mg/kg of each compound was administered to mice (5 mice/compound/dose) via intraperitoneal injections.
The nature of data set [1]: Pharmacokinetics in rats after i.v. dosing: plasma and tissue content. It counts as in vivo. As to conditions: 3.6 mg/kg i.v.; for concentration at 4 h: 3.6 mg/kg, liposomal. As to the method:
The pharmacokinetics of the compound were evaluated in two rats after dosing at 3.6 mg/kg i.v using a liposomal formulation (1.8 mg/mL). […] Maximum concentrations of approximately 450 ng/ml were attained in plasma. […] Data on the accumulation of the compound in various tissues of the rats is contained in the table below.

The test system of data set [2] is methicillin-resistant Staphylococcus aureus. Put plainly: Topical treatment of infected partial thickness wounds in pigs. It counts as in vivo, methicillin-resistant Staphylococcus aureus; pigs. As to conditions: pig wounds, 200 mg of 2% w/w in PEG. As for the experimental part: This Example establishes the efficacy of an antibacterial compound of the present invention in the topical treatment of methicillin-resistant Staphylococcus aureus infections. Partial thickness wounds were made on properly anesthetized young, specific pathogen free female pigs (SPF; Ken-O-Kaw Frams, Windsor, Ill.) weighing 25-30 kg. The wounds were inoculated with methicillin-resistant Staphylococcus aureus (~10^6 CFU/mL). Within 10 minutes of inoculation 200 mg of test compound [2% w/w in polyethylene glycol (PEG)] was applied to each wound. Wounds were cultured on days 1, 2, and 3. Each site was cultured only once. The culture sample was treated with a neutralizer for the antimicrobial active ingredient. The samples were processed as is known in the art to determine the number of colony forming units per mL.

Read-outs that look alike come from different tables or passages of the source.

Take `Clc1ccc2c(c1)[C@H]1OCC[C@H]1[C@@H](c1c[nH]c3ccc(Br)cc13)N2` (relative stereo): the survival at 168 h in “in vivo” (40 mg/kg) and in the data set “in vivo” (120 mg/kg) was 100% in each case.
Turning to `Clc1ccc2c(c1)[C@H]1OCC[C@H]1[C@H](c1c[nH]c3ccc(Br)cc13)N2` (relative stereo), the survival at 168 h in the data set “in vivo” (40 mg/kg) and in the data set “in vivo” (120 mg/kg) was 100% in each case.
In the case of `Brc1ccc2[nH]cc([C@H]3Nc4ccc(C#CCN5CCCCC5)cc4[C@H]4OCC[C@@H]34)c2c1` (relative stereo) [drawing 54], the concentration at 4 h in data set [1] (rat, brain, iv, rat 1, 4 h post dose, read-out: Compound Content in Brain) was 400 ng/g; in data set [1] (rat, brain, iv, rat 2, 4 h post dose, read-out: Compound Content in Brain), 400 ng/g; in data set [1] (rat, kidney, iv, rat 1, 4 h post dose, read-out: Compound Content in Kidney), 1300 ng/g; in data set [1] (rat, kidney, iv, rat 2, 4 h post dose, read-out: Compound Content in Kidney) it was 2200 ng/g; in data set [1] (rat, liver, iv, rat 1, 4 h post dose, read-out: Compound Content in Liver), 3200 ng/g; in data set [1] (rat, liver, iv, rat 2, 4 h post dose, read-out: Compound Content in Liver) it was 3000 ng/g. The concentration at 4 h in data set [1] (rat, lung, iv, rat 1, 4 h post dose, read-out: Compound Content in Lung) stood at 12100 ng/g; in data set [1] (rat, lung, iv, rat 2, 4 h post dose, read-out: Compound Content in Lung), 10900 ng/g; in data set [1] (rat, parietal peritoneum, iv, rat 1, 4 h post dose, read-out: Compound Content in Parietal Peritoneum) it was 1300 ng/g; in data set [1] (rat, parietal peritoneum, iv, rat 2, 4 h post dose, read-out: Compound Content in Parietal Peritoneum) it was 1600 ng/g; in data set [1] (rat, thigh muscle, iv, rat 2, 4 h post dose, read-out: Compound Content in Thigh Muscle) it was 700 ng/g. In addition, the Cmax in data set [1] (rat, plasma, iv, rats, liposomal formulation (1.8 mg/mL), read-out: Maximum concentrations in plasma) was around 450 ng/mL. Moreover, in data set [1] (rats, liposomal formulation), the “tolerability of the dose” value is recorded as “well tolerated”. Also, the “decline of plasma concentrations” value in data set [1] (rats, liposomal formulation, two-compartment open model) is listed as “declined biexponentially”.
As for `Brc1ccc2[nH]cc([C@H]3Nc4ccc(C#CCN5CCCCC5)cc4[C@H]4OCC[C@@H]34)c2c1` (relative stereo) [drawing 55], the “Log CFU/mL (mean ± SE)” value in data set [2] (24 h) is 5.92 Log CFU/mL; in data set [2] (48 h), 5.83 Log CFU/mL; in data set [2] (72 h) it was 5.66 Log CFU/mL.
